Test results taken from patent publication US20110039762A1, “TARGETED ANTIMICROBIAL MOIETIES” (C3 JIAN, INC., priority 2009, published 2011).
Entries after “also recorded” stand apart in the source; their conditions may differ. Ends that are not written are not given here.

Columns and labels:
[1] = tested on: microorganisms (e.g., bacteria, yeasts, fungi); assay: Targeting peptide binding to target microorganisms (Table 3); conditions: microorganism(s) the targeting peptide binds, preferably 1x PBS
microorganisms = assay: Peptides having multiple activities (targeting/binding, antimicrobial, growth or phenotype altering)
Text: In certain embodiments, peptides described herein can have multiple activities. Thus for example, a peptide can have both binding/targeting activity and antimicrobial activity. Such peptides can be used, e.g., in a chimeric construct, for any or all of these properties. Thus, for example, a peptide designated “B” in Table 8 can be used as a targeting peptide. If it is also designated G or M it can also be used for antimicrobial activity.

S. epidermidis = assay: Kill or inhibit growth/proliferation; morphology, biofilm and growth disruption (Tables 5, 6); format: cell-based, Staphylococcus epidermidis; parameters: key: A: Peptide aggregates; B: Less hyphal formation; Clumps; Diffuse clumps and small polyps; F: Diffuse growth; H: Thin; I: Growth inhibition; Microcolony formation; Rippled; Small polyps; Thick; W: Halo formation on top, microlonies on bottom; note: test concentration or dose not given here
E. coli = assay: as above; format: cell-based, Escherichia coli; parameters: key: A: Peptide aggregates; B: Less hyphal formation; Clumps; Diffuse clumps and small polyps; F: Diffuse growth; H: Thin; I: Growth inhibition; Microcolony formation; Rippled; Small polyps; Thick; W: Halo formation on top, microlonies on bottom
MRSA = assay: as above; format: cell-based, Methicillin-resistant Staphylococcus aureus; parameters: key: A: Peptide aggregates; B: Less hyphal formation; Clumps; Diffuse clumps and small polyps; F: Diffuse growth; H: Thin; I: Growth inhibition; Microcolony formation; Rippled; Small polyps; Thick; W: Halo formation on top, microlonies on bottom
S. pneumoniae = assay: as above; format: cell-based, Streptococcus pneumoniae; parameters: key: A: Peptide aggregates; B: Less hyphal formation; Clumps; Diffuse clumps and small polyps; F: Diffuse growth; H: Thin; I: Growth inhibition; Microcolony formation; Rippled; Small polyps; Thick; W: Halo formation on top, microlonies on bottom
E. faecalis = assay: as above; format: cell-based, Enterococcus faecalis; parameters: key: A: Peptide aggregates; B: Less hyphal formation; Clumps; Diffuse clumps and small polyps; F: Diffuse growth; H: Thin; I: Growth inhibition; Microcolony formation; Rippled; Small polyps; Thick; W: Halo formation on top, microlonies on bottom; note: test concentration or dose not given here
[2] = peptide binding conducted in aqueous buffers varied by peptide solubility
[3] = binding in aqueous buffers depending on peptide solubility
Throughout, for Organism, effect: test concentration or dose not given here.

Substance	Target(s) [1, 2]	Activities (microorganisms)	Organism, effect (S. epidermidis)	Organism, effect (E. coli)	Organism, effect (MRSA)	Organism, effect (S. pneumoniae)	Organism, effect (E. faecalis)	Target(s) [1, 3]
PF-395: peptide having multiple activities (YCVPLGNMGNMNNKIW; Peptide with targeting and/or antimicrobial activity)	S. epidermidis; also recorded: E. coli; also recorded: P. aeruginosa; also recorded: S. pneumoniae; also recorded: E. faecalis; also recorded: C. jeikeium; also recorded: C. jejuni	G B	S. epidermidis (C)	E. coli (R)	MRSA (C)	–	–	–
PF-478: peptide having multiple activities (chain 1 HLFILKSHLKPFPPFRYTYD; chain 2 HLFILKSHLKPFPPFRYTYD; Peptide with targeting and/or antimicrobial activity)	–	G B	S. epidermidis (C)	E. coli (C)	MRSA (H)	S. pneumoniae (C)	–	–
PF-514: peptide having multiple activities (chain 1 QRFYKLFYHIDLTNEQALKLFQVK; chain 2 QRFYKLFYHIDLTNEQALKLFQVK; Peptide with targeting and/or antimicrobial activity)	S. epidermidis and E. coli and P. aeruginosa and C. albicans and MRSA and S. pneumoniae and E. faecalis and C. jeikeium	G B	S. epidermidis (C)	E. coli (R)	–	S. pneumoniae (M)	E. faecalis (C)	–
PF-427: peptide having multiple activities (YVLEYHGLRATQDVDAFMAL; Peptide with targeting and/or antimicrobial activity)	M. luteus; also recorded: P. aeruginosa; also recorded: C. albicans; also recorded: C. jejuni	G B	–	E. coli (C)	MRSA (C)	S. pneumoniae (R)	E. faecalis (C)	–
PF-403: peptide having multiple activities (LLSTEQLLKYYDGETFDGFQLPSNE; Peptide with targeting and/or antimicrobial activity)	E. coli; also recorded: P. aeruginosa; also recorded: S. pneumoniae; also recorded: E. faecalis; also recorded: C. jeikeium; also recorded: C. jejuni	G B	S. epidermidis (M)	E. coli (R)	MRSA (M)	–	–	–
PF-453: peptide having multiple activities (chain 1 IIQDIAHAFGY; chain 2 IIQDIAHAFGY; Peptide with targeting and/or antimicrobial activity)	M. luteus; also recorded: E. coli; also recorded: P. aeruginosa; also recorded: S. pneumoniae; also recorded: E. faecalis; also recorded: C. jeikeium; also recorded: C. jejuni	G B	S. epidermidis (C)	E. coli (C)	MRSA (C)	S. pneumoniae (C)	–	–
PF-178: peptide having multiple activities (EVYSSPTNNVAITVQNN; Peptide with targeting and/or antimicrobial activity)	–	G B	S. epidermidis (D)	E. coli (C)	MRSA (M)	S. pneumoniae (D)	–	–
PF-532 (KFIYKYKLSFIIYKILIQTLTMELNK; Peptide with targeting and/or antimicrobial activity)	–	–	–	E. coli (C)	MRSA (C)	S. pneumoniae (C)	E. faecalis (C)	–
PF-519: peptide having multiple activities (chain 1 YLVYSGVLATAAAF-NH2; chain 2 YLVYSGVLATAAAF-NH2)	M. luteus; also recorded: E. faecalis; also recorded: C. jeikeium	G B	–	E. coli (R)	MRSA (C)	S. pneumoniae (S)	E. faecalis (C)	–
PF-386: peptide having multiple activities (chain 1 FTLTLITTIVAILNYKDKKK; chain 2 FTLTLITTIVAILNYKDKKK; Peptide with targeting and/or antimicrobial activity)	–	G B	S. epidermidis (C)	E. coli (C)	MRSA (C)	–	E. faecalis (C)	–
PF-540: peptide having multiple activities (chain 1 KSILILIKVIFIGQTTIIL; chain 2 KSILILIKVIFIGQTTIIL; Peptide with targeting and/or antimicrobial activity)	C. albicans	G B	S. epidermidis (H)	E. coli (R)	MRSA (H)	S. pneumoniae (R)	–	–
PF-360: peptide having multiple activities (chain 1 MEQKVKVIFVPRSKPDNQLKTFVSAVLFKA; chain 2 MEQKVKVIFVPRSKPDNQLKTFVSAVLFKA; Peptide with targeting and/or antimicrobial activity)	–	G B	S. epidermidis (S)	E. coli (C)	MRSA (H)	–	–	S. epidermidis; also recorded: B. subtilis; also recorded: E. coli; also recorded: P. aeruginosa; also recorded: C. albicans; also recorded: E. faecalis; also recorded: C. jeikeium; also recorded: C. jejuni
PF-619: peptide having multiple activities (WSRVPGHSDTGWKVWHRW; Peptide with targeting and/or antimicrobial activity)	–	G B	S. epidermidis (M)	E. coli (C)	MRSA (M)	S. pneumoniae (C)	–	–
PF-413: peptide having multiple activities (TFAGSIKIGVPDLVHVTFNCKR; Peptide with targeting and/or antimicrobial activity)	P. aeruginosa; also recorded: C. albicans; also recorded: C. jejuni	G B	S. epidermidis (C)	E. coli (S)	MRSA (C)	–	–	–
PF-370: peptide having multiple activities (chain 1 VIFLHKESGNLKEIFY; chain 2 VIFLHKESGNLKEIFY; Peptide with targeting and/or antimicrobial activity)	–	G B	S. epidermidis (C)	E. coli (R)	MRSA (C)	–	–	S. epidermidis; also recorded: E. coli; also recorded: P. aeruginosa; also recorded: E. faecalis; also recorded: C. jejuni
PF-350: peptide having multiple activities (LAVILRAIVY; Peptide with targeting and/or antimicrobial activity)	–	G B	S. epidermidis (C)	E. coli (C)	MRSA (C)	–	–	S. epidermidis; also recorded: E. coli; also recorded: E. faecalis; also recorded: C. jeikeium; also recorded: C. jejuni
